# Experimental data taken from patent publication US8236337B2, “Anti-microbial orthodontic compositions and appliances and methods of production and use thereof” (Selenium, Ltd., priority 2005, dated 2012).
# Tested on: not listed separately
# Experiment: Superoxide radical generation by selenium modified bonding agent coated on a surface, measured by chemiluminescence; leaching check of soak water
# Settings: mixed with AAEMA to final selenium concentration of 5%, coated on PMMA plastic or human toenail and dried
# Method: In this hydrophobic mixing experiment, a selenium compound comprising a CN protecting group [2-(selenocyanatoacetoxy)butoxyethyl methacrylate] was mixed with the bonding agent 2-(Acetoacetoxy)ethylmethacrylate (AAEMA) to a final selenium concentration of 5%. The selenium composition was then applied to a surface, such as a PMMA plastic or a human toenail (results with both surfaces were the same), preferably at a concentration of about 100 mg/cm^2. The ability of the selenium modified bonding agent to generate superoxide radicals was then measured by chemiluminescence, as shown in FIG. 1. In FIG. 1, “Crude 1” and “Crude 2” refer to a mixture of the selenium labeled material with AAEMA; “pure” refers to the pure selenium labeled compound (no AAEMA); “blank” refers to the AAEMA with no selenium; for “plastic removed”, the mixture-coated plastic was soaked in water, and then after removal of the plastic, the aqueous solution was tested for any selenium that may have come off.
row,Compound,ability to generate superoxide radicals (chemiluminescence)
1,C=C(C)C(=O)OCCOCC(CC)OC(=O)C[Se]C#N (centres unmarked) [2-(selenocyanatoacetoxy)butoxyethyl methacrylate],still demonstrating chemiluminescence

# Same assay, conditions: mixture-coated plastic soaked in water, aqueous solution tested by chemiluminescence after removal of plastic
row,Compound,"leaching of selenium from coated plastic (""plastic removed"" sample)"
1,C=C(C)C(=O)OCCOCC(CC)OC(=O)C[Se]C#N (centres unmarked) [2-(selenocyanatoacetoxy)butoxyethyl methacrylate],no significant leaching

# Tested on: Biofilm formation
# Experiment: Inhibition of biofilm formation by selenium compounds (Example 4)
# Type: cell-based
# Set-up: Percent inhibition of Biofilm formation: concentration or dose not given beside the values
# Settings: not given
Compound,"Biofilm formation, log reduction [logs]",Percent inhibition of Biofilm formation [%]
"3,4-Bis(selenyl)propionic acid",2,99
"NCC[Se-].[Na+] [Sodium 1-amino,2-seleno ethane]",3,99.9
"3,4-Bis(selenyl)ethanoic acid",8,100
"CC(O)C(O)[Se]C#N (centres unmarked) [1-selenocyanato,2-hydroxy propanol]",8,100
"c1ccc([Se][Se]c2ccccc2)cc1 [1,2-Bis(phenyl)diselenide]",8,100
"N#C[Se]CCN [1-amino,2-selenocyanato ethane]",5,99.999
Cl.Cl.NCC[Se][Se]CCN [Selenocystamine 2HCl],5,99.999
"3,4-Bis(selenyl)2-hydroxy propanol",8,100
"CC(NC(=O)OCC1c2ccccc2-c2ccccc21)[Se]C#N (centres unmarked) [Fmoc-1-amino,1-selenocyanato ethane]",8,100
"C1CCC(C[Se][Se]CC2CCCCC2)CC1 [1,2-Bis(cyclohexylmethyl)diselenide]",,98
C=C(C)C(=O)OCCOC(=O)CC(C)OC(=O)CC[Se][Se]CCC(=O)OC(C)CC(=O)OCCOC(=O)C(=C)C (centres unmarked) [3-[3-(2-{1-Methyl-2-[2-(2-methyl-acryloyloxy)-ethoxycarbonyl]-ethoxycarbonyl}-ethyldiselenyl)-propionyloxy]-butyric acid 2-(2-methyl-acryloyloxy)-ethyl ester],8,100
